Data from patent publication US20080227823A1, “AMIDE DERIVATIVES AS CALCIUM CHANNEL BLOCKERS” (priority 2007, published 2008).

target: T1, human α1G T-type channels (Homo sapiens, UniProt O43497); assay: T-type calcium channel block, whole cell patch clamp in HEK cells; assay type: cell-based; details: measured at 1 μM drug, mainly non-inactivated protocol
T1 construct: expressed in transfected cells; host or cells: HEK 293
Method: (§1) T-type calcium channel blocking activity was assayed in human embryonic kidney cells, HEK 293, stably transfected with the T-type calcium channel subunits. Briefly, cells were cultured in Dulbecco's modified eagle medium (DMEM) supplemented with 10% fetal bovine serum, 200 U/ml penicillin and 0.2 mg/ml streptomycin at 37° C. with 5% CO2. At 85% confluency cells were split with 0.25% trypsin/1 mM EDTA and plated at 10% confluency on glass coverslips. At 12 hours the medium was replaced and the cells stably transfected using a standard calcium phosphate protocol and the appropriate calcium channel cDNA's. Fresh DMEM was supplied and the cells transferred to 28° C./5% CO2. Cells were incubated for 1 to 2 days prior to whole cell recording.
(§2) Standard patch-clamp techniques were employed to identify blockers of T-type currents. Briefly, previously described HEK cell lines stably expressing human α1G, α1H and α1I T-type channels were used for all the recordings (passage #: 4-20, 37° C., 5% CO2). Whole cell patch clamp experiments were performed using an Axopatch 200B amplifier (Axon Instruments, Burlingame, Calif.) linked to a personal computer equipped with pCLAMP software. Data were analyzed using Clampfit (Axon Instruments) and SigmaPlot 4.0 (Jandel Scientific). To obtain T-type currents, plastic dishes containing semi-confluent cells were positioned on the stage of a ZEISS AXIOVERT S100 microscope after replacing the culture medium with external solution (see below). Whole-cell patches were obtained using pipettes (borosilicate glass with filament, O.D.: 1.5 mm, I.D.: 0.86 mm, 10 cm length), fabricated on a SUTTER P-97 puller with resistance values of ˜5 MΩ (see below for internal solution).
(§3) T-type currents were reliably obtained by using two voltage protocols: • (1) “non-inactivating”, and • (2) “inactivation”
(§4) In the non-inactivating protocol, the holding potential is set at −110 mV and with a pre-pulse at −100 mV for 1 second prior to the test pulse at −40 mV for 50 ms. In the inactivation protocol, the pre-pulse is at approximately −85 mV for 1 second, which inactivates about 15% of the T-type channels.
(§5) Test compounds were dissolved in external solution, 0.1-0.01% DMSO. After 10 min rest, they were applied by gravity close to the cell using a WPI microfil tubing. The “non-inactivated” pre-pulse was used to examine the resting block of a compound. The “inactivated” protocol was employed to study voltage-dependent block. However, the initial data shown below were mainly obtained using the non-inactivated protocol only. Kd values are shown for various compounds of the invention in Table 4 measured at 1 μM for the drug of interest except for compound 18 which was measured at 200 nM.

T1 sequence (O43497 whole entry): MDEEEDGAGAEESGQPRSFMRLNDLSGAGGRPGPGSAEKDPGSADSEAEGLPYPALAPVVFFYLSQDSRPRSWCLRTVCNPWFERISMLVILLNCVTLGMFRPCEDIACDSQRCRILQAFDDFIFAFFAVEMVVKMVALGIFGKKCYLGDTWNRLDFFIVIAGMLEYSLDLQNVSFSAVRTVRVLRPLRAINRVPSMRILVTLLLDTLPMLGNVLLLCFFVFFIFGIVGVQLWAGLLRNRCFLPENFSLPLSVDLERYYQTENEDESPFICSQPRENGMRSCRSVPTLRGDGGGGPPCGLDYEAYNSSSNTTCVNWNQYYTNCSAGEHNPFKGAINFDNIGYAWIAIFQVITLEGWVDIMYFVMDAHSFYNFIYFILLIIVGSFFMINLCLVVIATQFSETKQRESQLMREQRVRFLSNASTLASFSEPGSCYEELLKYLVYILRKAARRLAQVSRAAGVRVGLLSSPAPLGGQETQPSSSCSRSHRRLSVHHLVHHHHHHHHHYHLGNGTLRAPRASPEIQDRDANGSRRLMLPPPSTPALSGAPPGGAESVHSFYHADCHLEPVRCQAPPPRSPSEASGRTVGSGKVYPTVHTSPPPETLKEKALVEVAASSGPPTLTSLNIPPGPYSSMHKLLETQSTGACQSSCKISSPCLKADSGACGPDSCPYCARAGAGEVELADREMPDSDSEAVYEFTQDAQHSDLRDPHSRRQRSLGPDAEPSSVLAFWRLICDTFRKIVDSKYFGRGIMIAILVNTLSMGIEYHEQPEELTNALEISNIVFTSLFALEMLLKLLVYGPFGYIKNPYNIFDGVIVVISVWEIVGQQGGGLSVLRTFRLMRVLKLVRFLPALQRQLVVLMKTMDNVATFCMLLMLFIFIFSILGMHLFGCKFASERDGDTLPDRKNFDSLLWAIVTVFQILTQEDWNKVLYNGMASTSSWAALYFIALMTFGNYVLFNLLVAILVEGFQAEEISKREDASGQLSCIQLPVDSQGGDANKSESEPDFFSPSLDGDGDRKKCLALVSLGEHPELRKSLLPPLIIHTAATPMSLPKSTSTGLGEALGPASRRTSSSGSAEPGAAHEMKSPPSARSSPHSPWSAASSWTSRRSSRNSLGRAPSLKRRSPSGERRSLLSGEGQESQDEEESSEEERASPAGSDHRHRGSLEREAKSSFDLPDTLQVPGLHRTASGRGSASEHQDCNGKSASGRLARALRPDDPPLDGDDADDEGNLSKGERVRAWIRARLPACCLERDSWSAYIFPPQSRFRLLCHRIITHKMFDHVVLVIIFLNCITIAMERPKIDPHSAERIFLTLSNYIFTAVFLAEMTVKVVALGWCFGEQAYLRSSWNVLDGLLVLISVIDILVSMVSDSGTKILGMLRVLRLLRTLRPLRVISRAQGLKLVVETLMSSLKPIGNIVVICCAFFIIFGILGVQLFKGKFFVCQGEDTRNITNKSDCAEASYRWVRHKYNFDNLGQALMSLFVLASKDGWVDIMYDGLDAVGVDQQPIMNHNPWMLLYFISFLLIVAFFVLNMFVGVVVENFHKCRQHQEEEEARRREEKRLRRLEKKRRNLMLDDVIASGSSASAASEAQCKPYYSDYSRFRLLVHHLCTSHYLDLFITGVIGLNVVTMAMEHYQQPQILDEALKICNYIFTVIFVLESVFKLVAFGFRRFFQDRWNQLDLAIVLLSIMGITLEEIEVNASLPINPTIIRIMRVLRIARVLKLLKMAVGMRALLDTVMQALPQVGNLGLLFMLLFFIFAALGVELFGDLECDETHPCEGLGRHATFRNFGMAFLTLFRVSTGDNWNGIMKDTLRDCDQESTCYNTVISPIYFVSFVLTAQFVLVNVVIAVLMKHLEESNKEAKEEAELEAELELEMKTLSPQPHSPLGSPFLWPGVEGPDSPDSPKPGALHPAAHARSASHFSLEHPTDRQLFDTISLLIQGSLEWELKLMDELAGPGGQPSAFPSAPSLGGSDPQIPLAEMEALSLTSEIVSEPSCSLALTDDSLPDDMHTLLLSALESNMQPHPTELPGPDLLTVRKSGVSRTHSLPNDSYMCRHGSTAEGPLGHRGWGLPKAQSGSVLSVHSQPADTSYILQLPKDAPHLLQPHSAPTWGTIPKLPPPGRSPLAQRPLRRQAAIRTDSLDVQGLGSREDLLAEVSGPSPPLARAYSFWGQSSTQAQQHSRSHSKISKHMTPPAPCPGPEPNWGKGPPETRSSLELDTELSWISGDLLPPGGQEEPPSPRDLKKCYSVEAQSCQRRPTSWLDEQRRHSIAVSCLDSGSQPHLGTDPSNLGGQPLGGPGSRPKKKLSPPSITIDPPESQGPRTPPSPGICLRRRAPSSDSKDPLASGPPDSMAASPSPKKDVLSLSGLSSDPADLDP

Row | SMILES | Kd
1 | O=C(/C=C/c1ccc(F)cc1)NC1(C(=O)Nc2cc(C(F)(F)F)cc(C(F)(F)F)c2)CCN(C2CCOCC2)CC1 [Compound 54, (E)-N-(3,5-bis(trifluoromethyl)phenyl)-4-(3-(4-fluorophenyl)acrylamido)-1-(tetrahydro-2H-pyran-4-yl)piperidine-4-carboxamide] | 210 nM
2 | COCCOC1CCC(NC(=O)/C=C/c2ccc(F)cc2)(C(=O)Nc2cc(C(F)(F)F)cc(C(F)(F)F)c2)CC1 (stereo not drawn) [Compound 61, (E)-N-(3,5-bis(trifluoromethyl)phenyl)-1-(3-(4-fluorophenyl)acrylamido)-4-(2-methoxyethoxy)cyclohexanecarboxamide] | 990 nM
3 | CC(C)(O)CN1CCC(NC(=O)/C=C/c2ccc(F)cc2)(C(=O)NCCc2c[nH]c3ccc(F)cc23)CC1 [Compound 69, (E)-N-(2-(5-fluoro-1H-indol-3-yl)ethyl)-4-(3-(4-fluorophenyl)acrylamido)-1-(2-hydroxy-2-methylpropyl)piperidine-4-carboxamide] | 3630 nM
4 | O=C(/C=C/c1ccc(F)c(F)c1)NC1(C(=O)Nc2ccccc2Oc2ccccc2)CCNCC1 [Compound 50, (E)-4-(3-(3,4-difluorophenyl)acrylamido)-N-(2-phenoxyphenyl)piperidine-4-carboxamide] | 80 nM
5 | NCC(=O)N1CCC(NC(=O)/C=C/c2ccc(F)cc2)(C(=O)Nc2cc(C(F)(F)F)cc(C(F)(F)F)c2)CC1 [Compound 63, (E)-1-(2-aminoacetyl)-N-(3,5-bis(trifluoromethyl)phenyl)-4-(3-(4-fluorophenyl)acrylamido)piperidine-4-carboxamide] | 90 nM
6 | NC(=O)CN1CCC(NC(=O)/C=C/c2ccc(F)cc2)(C(=O)Nc2cc(C(F)(F)F)cc(C(F)(F)F)c2)CC1 [Compound 62, (E)-1-(2-amino-2-oxoethyl)-N-(3,5-bis(trifluoromethyl)phenyl)-4-(3-(4-fluorophenyl)acrylamido)piperidine-4-carboxamide] | 280 nM
7 | O=C(/C=C/c1ccc(F)cc1)NC1(C(=O)Nc2cccc(C(F)(F)F)c2)CCNCC1 [Compound 33, (E)-4-(3-(4-fluorophenyl)acrylamido)-N-(3-(trifluoromethyl)phenyl)piperidine-4-carboxamide] | 2450 nM
8 | COCCN1CCC(NC(=O)/C=C/c2ccc(F)cc2)(C(=O)Nc2cc(C(F)(F)F)cc(C(F)(F)F)c2)CC1 [Compound 57, (E)-N-(3,5-bis(trifluoromethyl)phenyl)-4-(3-(4-fluorophenyl)acrylamido)-1-(2-methoxyethyl)piperidine-4-carboxamide] | 130 nM
9 | O=C(NCCc1c[nH]c2ccc(F)cc12)C1CCCN1C(=O)/C=C/c1ccc(F)c(Br)c1 (stereo in doubt) [Compound 19, (R,E)-1-(3-(3-bromo-4-fluorophenyl)acryloyl)-N-(2-(5-fluoro-1H-indol-3-yl)ethyl)pyrrolidine-2-carboxamide] | 1350 nM
10 | O=C(/C=C/c1ccc(F)c(F)c1)NC1(C(=O)Nc2ccccc2)CCNCC1 [Compound 34, (E)-4-(3-(3,4-difluorophenyl)acrylamido)-N-phenylpiperidine-4-carboxamide] | 3290 nM
11 | CN(CCc1c[nH]c2ccc(F)cc12)C(=O)C1(NC(=O)/C=C/c2ccc(F)cc2)CCN(C(=O)CN)CC1 [Compound 67, (E)-1-(2-aminoacetyl)-N-(2-(5-fluoro-1H-indol-3-yl)ethyl)-4-(3-(4-fluorophenyl)acrylamido)-N-methylpiperidine-4-carboxamide] | 1020 nM

The remaining compounds from weak to strong by Kd, led by results:

Row | Kd | SMILES
12 | 14600 nM | O=C(/C=C/c1ccc(F)cc1)NC1(C(=O)Nc2ccccc2C(F)(F)F)CCNCC1 [Compound 46, (E)-4-(3-(4-fluorophenyl)acrylamido)-N-(2-(trifluoromethyl)phenyl)piperidine-4-carboxamide]
13 | 5370 nM | COCCC(=O)N1CCC(NC(=O)/C=C/c2ccc(F)c(Br)c2)(C(=O)NCCc2c[nH]c3ccc(F)cc23)CC1 [Compound 25, (E)-4-(3-(3-bromo-4-fluorophenyl)acrylamido)-N-(2-(5-fluoro-1H-indol-3-yl)ethyl)-1-(3-methoxypropanoyl)piperidine-4-carboxamide]
14 | 2620 nM | CC(=O)N1CCC(NC(=O)/C=C/c2ccc(F)c(Br)c2)(C(=O)NCCc2c[nH]c3ccc(F)cc23)CC1 [Compound 21, (E)-1-acetyl-4-(3-(3-bromo-4-fluorophenyl)acrylamido)-N-(2-(5-fluoro-1H-indol-3-yl)ethyl)piperidine-4-carboxamide]
15 | 2570 nM | CN(CCc1c[nH]c2ccc(F)cc12)C(=O)C1(NC(=O)/C=C/c2ccc(F)cc2)CCN(CC(N)=O)CC1 [Compound 65, (E)-1-(2-amino-2-oxoethyl)-N-(2-(5-fluoro-1H-indol-3-yl)ethyl)-4-(3-(4-fluorophenyl)acrylamido)-N-methylpiperidine-4-carboxamide]
16 | 1630 nM | CC(C)(O)C(=O)N1CCC(NC(=O)/C=C/c2ccc(F)cc2)(C(=O)Nc2cc(C(F)(F)F)cc(C(F)(F)F)c2)CC1 [Compound 66, (E)-N-(3,5-bis(trifluoromethyl)phenyl)-4-(3-(4-fluorophenyl)acrylamido)-1-(2-hydroxy-2-methylpropanoyl)piperidine-4-carboxamide]
17 | 1060 nM | O=C(/C=C/c1ccc(F)cc1)NC1(C(=O)Nc2cc(C(F)(F)F)cc(C(F)(F)F)c2)CCC(O)CC1 (stereo not drawn) [Compound 56, (E)-N-(3,5-bis(trifluoromethyl)phenyl)-1-(3-(4-fluorophenyl)acrylamido)-4-hydroxycyclohexanecarboxamide]
18 | 580 nM | CN(CCc1c[nH]c2ccc(F)cc12)C(=O)C1(NC(=O)/C=C/c2ccc(F)cc2)CCNCC1 [Compound 49, (E)-N-(2-(5-fluoro-1H-indol-3-yl)ethyl)-4-(3-(4-fluorophenyl)acrylamido)-N-methylpiperidine-4-carboxamide]
19 | 550 nM | CCNC(=O)N1CCC(NC(=O)/C=C/c2ccc(F)c(Br)c2)(C(=O)NCCc2c[nH]c3ccc(F)cc23)CC1 [Compound 26, (E)-4-(3-(3-bromo-4-fluorophenyl)acrylamido)-N1-ethyl-N4-(2-(5-fluoro-1H-indol-3-yl)ethyl)piperidine-1,4-dicarboxamide]
20 | 430 nM | O=C(/C=C/c1ccc(F)c(Br)c1)NC1(C(=O)NCCc2c[nH]c3ccc(F)cc23)CCOCC1 [Compound 16, (E)-4-(3-(3-bromo-4-fluorophenyl)acrylamido)-N-(2-(5-fluoro-1H-indol-3-yl)ethyl)tetrahydro-2H-pyran-4-carboxamide]
21 | 220 nM | CN1CCC(NC(=O)/C=C/c2ccc(F)cc2)(C(=O)Nc2cc(C(F)(F)F)cc(C(F)(F)F)c2)CC1 [Compound 42, (E)-N-(3,5-bis(trifluoromethyl)phenyl)-4-(3-(4-fluorophenyl)acrylamido)-1-methylpiperidine-4-carboxamide]
22 | 160 nM | O=C(/C=C/c1ccc(F)cc1)NC1(C(=O)Nc2cc(C(F)(F)F)cc(C(F)(F)F)c2)CCN(c2ncccn2)CC1 [Compound 52, (E)-N-(3,5-bis(trifluoromethyl)phenyl)-4-(3-(4-fluorophenyl)acrylamido)-1-(pyrimidin-2-yl)piperidine-4-carboxamide]
23 | 80 nM | Cc1cc(/C=C/C(=O)NC2(C(=O)Nc3cc(C(F)(F)F)cc(C(F)(F)F)c3)CCN(C)CC2)ccc1F [Compound 43, (E)-N-(3,5-bis(trifluoromethyl)phenyl)-4-(3-(4-fluoro-3-methylphenyl)acrylamido)-1-methylpiperidine-4-carboxamide]

target: T2, human α1H T-type channels (Homo sapiens, UniProt O95180); assay: as above; assay type: cell-based; details: measured at 1 μM drug, mainly non-inactivated protocol
T2 construct: expressed in transfected cells; host or cells: HEK 293
T2 sequence (O95180 whole entry): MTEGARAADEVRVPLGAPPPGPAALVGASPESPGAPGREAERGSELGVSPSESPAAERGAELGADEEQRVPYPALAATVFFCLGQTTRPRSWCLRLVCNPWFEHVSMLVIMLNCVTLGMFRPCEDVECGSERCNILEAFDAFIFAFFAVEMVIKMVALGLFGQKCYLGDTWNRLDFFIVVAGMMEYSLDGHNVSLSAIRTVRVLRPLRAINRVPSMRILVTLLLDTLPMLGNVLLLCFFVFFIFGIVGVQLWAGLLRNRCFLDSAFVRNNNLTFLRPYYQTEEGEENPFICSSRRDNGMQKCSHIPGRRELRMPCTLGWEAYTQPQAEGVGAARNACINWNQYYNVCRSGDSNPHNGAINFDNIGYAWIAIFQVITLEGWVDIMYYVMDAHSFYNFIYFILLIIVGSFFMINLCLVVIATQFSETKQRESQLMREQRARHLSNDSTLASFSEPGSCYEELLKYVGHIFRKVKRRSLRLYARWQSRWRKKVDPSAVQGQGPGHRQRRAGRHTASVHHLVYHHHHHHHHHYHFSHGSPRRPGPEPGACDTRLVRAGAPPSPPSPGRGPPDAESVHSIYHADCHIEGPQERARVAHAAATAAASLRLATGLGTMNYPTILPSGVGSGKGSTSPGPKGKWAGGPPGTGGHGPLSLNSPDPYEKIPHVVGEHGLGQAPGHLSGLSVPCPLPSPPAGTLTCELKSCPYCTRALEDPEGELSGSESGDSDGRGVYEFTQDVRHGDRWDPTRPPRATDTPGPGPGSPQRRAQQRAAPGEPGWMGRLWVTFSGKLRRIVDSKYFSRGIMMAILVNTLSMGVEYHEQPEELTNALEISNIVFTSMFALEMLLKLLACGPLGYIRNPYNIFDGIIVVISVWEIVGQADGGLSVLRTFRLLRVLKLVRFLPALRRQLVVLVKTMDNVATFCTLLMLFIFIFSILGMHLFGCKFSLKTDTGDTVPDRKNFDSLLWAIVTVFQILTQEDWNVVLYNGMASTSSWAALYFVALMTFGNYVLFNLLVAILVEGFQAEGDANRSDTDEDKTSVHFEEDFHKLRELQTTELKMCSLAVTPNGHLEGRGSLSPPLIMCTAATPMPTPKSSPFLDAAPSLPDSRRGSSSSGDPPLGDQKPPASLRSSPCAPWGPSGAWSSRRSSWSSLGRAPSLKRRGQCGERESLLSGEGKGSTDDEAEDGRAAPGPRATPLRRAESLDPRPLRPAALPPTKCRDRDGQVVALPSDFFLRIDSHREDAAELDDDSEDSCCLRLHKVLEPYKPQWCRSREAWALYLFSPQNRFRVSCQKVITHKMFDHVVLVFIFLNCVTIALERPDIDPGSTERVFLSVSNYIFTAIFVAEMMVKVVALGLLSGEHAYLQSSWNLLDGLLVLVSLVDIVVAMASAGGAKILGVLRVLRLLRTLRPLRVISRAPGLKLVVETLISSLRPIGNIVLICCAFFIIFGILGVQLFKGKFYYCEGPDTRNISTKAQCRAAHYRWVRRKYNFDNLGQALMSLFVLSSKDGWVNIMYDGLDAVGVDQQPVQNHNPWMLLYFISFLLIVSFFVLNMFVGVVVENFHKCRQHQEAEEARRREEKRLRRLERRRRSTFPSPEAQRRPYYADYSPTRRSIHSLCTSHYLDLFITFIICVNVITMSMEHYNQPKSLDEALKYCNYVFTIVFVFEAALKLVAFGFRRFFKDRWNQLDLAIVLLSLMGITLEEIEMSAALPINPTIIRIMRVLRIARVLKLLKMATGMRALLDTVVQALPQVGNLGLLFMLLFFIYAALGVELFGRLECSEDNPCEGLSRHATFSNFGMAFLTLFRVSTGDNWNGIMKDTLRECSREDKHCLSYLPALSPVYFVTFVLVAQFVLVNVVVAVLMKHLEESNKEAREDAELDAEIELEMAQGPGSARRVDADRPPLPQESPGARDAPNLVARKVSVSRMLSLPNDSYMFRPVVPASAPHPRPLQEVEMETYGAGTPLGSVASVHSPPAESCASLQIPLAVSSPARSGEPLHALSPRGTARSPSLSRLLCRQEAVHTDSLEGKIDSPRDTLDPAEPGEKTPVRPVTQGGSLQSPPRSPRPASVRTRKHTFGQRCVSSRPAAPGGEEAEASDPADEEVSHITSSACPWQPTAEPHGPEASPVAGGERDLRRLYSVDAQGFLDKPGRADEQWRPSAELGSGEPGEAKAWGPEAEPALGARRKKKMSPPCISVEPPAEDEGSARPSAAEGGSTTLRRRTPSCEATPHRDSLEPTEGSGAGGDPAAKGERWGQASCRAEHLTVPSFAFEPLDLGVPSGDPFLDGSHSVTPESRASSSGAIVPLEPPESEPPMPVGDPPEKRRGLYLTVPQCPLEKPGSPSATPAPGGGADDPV
Method: as §1, §2, §3, §4, §5

Row | SMILES | Kd
24 | O=C(/C=C/c1ccc(F)cc1)NC1(C(=O)Nc2cc(C(F)(F)F)cc(C(F)(F)F)c2)CCN(C2CCOCC2)CC1 [Compound 54, (E)-N-(3,5-bis(trifluoromethyl)phenyl)-4-(3-(4-fluorophenyl)acrylamido)-1-(tetrahydro-2H-pyran-4-yl)piperidine-4-carboxamide] | 6320 nM
25 | O=C(/C=C/c1ccc(F)c(F)c1)NC1(C(=O)Nc2ccccc2Oc2ccccc2)CCNCC1 [Compound 50, (E)-4-(3-(3,4-difluorophenyl)acrylamido)-N-(2-phenoxyphenyl)piperidine-4-carboxamide] | 2970 nM

More lines, now with the values ahead:

Row | Kd | SMILES
26 | 41900 nM | CN1CCC(NC(=O)/C=C/c2ccc(F)cc2)(C(=O)Nc2cc(C(F)(F)F)cc(C(F)(F)F)c2)CC1 [Compound 42, (E)-N-(3,5-bis(trifluoromethyl)phenyl)-4-(3-(4-fluorophenyl)acrylamido)-1-methylpiperidine-4-carboxamide]
27 | 1120 nM | Cc1cc(/C=C/C(=O)NC2(C(=O)Nc3cc(C(F)(F)F)cc(C(F)(F)F)c3)CCN(C)CC2)ccc1F [Compound 43, (E)-N-(3,5-bis(trifluoromethyl)phenyl)-4-(3-(4-fluoro-3-methylphenyl)acrylamido)-1-methylpiperidine-4-carboxamide]
